Results as given in patent US20230135894A1, “MK2 DEGRADERS AND USES THEREOF” (Kymera Therapeutics, Inc., priority 2021, published 2023).

What was measured:
[1] = biological target: T1, MK2 (Homo sapiens, UniProt P49137); experiment: MK2 degradation in human SW1353 cells (MSD, 24 h); type: cell-based; design: endogenous in cells; host or cells: SW-1353 (ATCC HTB-94); key to MK2 MSD SW1353 degradation 24 h GMean External Abs DC50: A (<0.001 μM); B (0.001-0.01 μM); C (0.01-0.1 μM); D (>0.1 μM); —: “-”=not tested or inactive; key to MK2 MSD SW 1353 24 h Dmax %: —: “-”=not tested or inactive; details: for Dmax: read-out: MK2 MSD SW 1353 24 h Dmax %; for DC50: read-out: MK2 MSD SW1353 degradation 24 h GMean External Abs DC50
T1 sequence (P49137 whole entry): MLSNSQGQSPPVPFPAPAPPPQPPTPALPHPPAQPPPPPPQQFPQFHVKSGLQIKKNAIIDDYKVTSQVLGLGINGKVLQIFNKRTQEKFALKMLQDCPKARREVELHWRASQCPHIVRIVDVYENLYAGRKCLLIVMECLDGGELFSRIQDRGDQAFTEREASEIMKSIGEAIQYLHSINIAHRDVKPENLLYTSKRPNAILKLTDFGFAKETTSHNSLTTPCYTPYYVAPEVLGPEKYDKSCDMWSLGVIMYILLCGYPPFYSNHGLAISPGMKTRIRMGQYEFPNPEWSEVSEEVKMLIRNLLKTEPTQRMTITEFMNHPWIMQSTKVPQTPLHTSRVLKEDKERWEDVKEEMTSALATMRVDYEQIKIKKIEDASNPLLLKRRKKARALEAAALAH
Summary of the method: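 DC50 derived by 4-parameter logistic fit, with DMSO-treated signal as top and lysis-buffer signal as bottom. Remaining MK2 was measured by MSD electrochemiluminescent sandwich assay in RIPA lysates of human SW1353 cells exposed for 24 h at 37 °C to serially diluted compound in 0.1% DMSO.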

[2] = biological target: T1, MK2; experiment: MK2 degradation in human THP-1 monocytic cells (MSD, 24 h); type: cell-based; design: endogenous in cells; key to MK2 MSD THP-1 degradation 24 h GMean External Abs DC50: A (<0.001 μM); B (0.001-0.01 μM); C (0.01-0.1 μM); D (>0.1 μM); —: “-”=not tested or inactive; details: for Dmax: THP-1, THP-1 cells; for DC50: read-out: MK2 MSD THP-1 degradation 24 h GMean External Abs DC50
Summary of the method: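 Readout: residual MK2 protein in THP-1 lysates, measured by MSD electrochemiluminescence sandwich assay after 24 h compound exposure (≤10-point serial dilutions, 0.1% DMSO, 37 °C). Curves normalised between lysis-buffer and DMSO-cell signals; DC50 by 4-parameter logistic fit.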

MK2 MSD SW1353 degradation 24 h GMean External Abs DC50 [1]	Dmax [1] [%]	Dmax [2] [%]	DC50 ([2]; THP-1 cells) [nM]	MK2 MSD SW 1353 24 h Dmax % [1]	DC50 [1] [nM]	MK2 MSD THP-1 degradation 24 h GMean External Abs DC50 ([2]; THP-1 cells)	Structure (SMILES)
—	> 75	> 75	1 to 10				Cn1c(=O)n(C2CCC(=O)NC2=O)c2cccc(CCCN3CCN(c4ccc(-c5cc(-c6cc7c([nH]6)C6(CC6)CNC7=O)ccn5)cn4)CC3)c21 (centres unmarked) [Compound I-199]
—	> 75	> 75	1 to 10				Cn1c(=O)n(C2CCC(=O)NC2=O)c2cccc(CCN3CCN(c4ccc(-c5cc(-c6cc7c([nH]6)C6(CC6)CNC7=O)ccn5)cn4)CC3)c21 (centres unmarked) [Compound I-200]
—		< 50	> 100	—			Cn1c(=O)n(C2CCC(=O)NC2=O)c2ccc(CCN3CCN(c4ccc(-c5cc(-c6cc7c([nH]6)C6(CC6)CNC7=O)ccn5)cn4)CC3)cc21 (centres unmarked) [Compound I-201]
—		< 50	> 100	—			Cn1c(=O)n(C2CCC(=O)NC2=O)c2ccc(CCN3CCN(c4ccc(-c5cc(-c6cc7c([nH]6)C6(CC6)CNC7=O)ccn5)cc4)CC3)cc21 (centres unmarked) [Compound I-202]
—	> 75	> 75	1 to 10				Cn1c(=O)n(C2CCC(=O)NC2=O)c2cccc(CCN3CCN(c4ccc(-c5cc(-c6cc7c([nH]6)C6(CC6)CNC7=O)ccn5)cc4)CC3)c21 (centres unmarked) [Compound I-203]
—		> 75	1 to 10	—			Cn1c(=O)n(C2CCC(=O)NC2=O)c2cccc(CCCN3CCN(c4ccc(-c5cc(-c6cc7c([nH]6)C6(CCC6)CNC7=O)ccn5)cc4)CC3)c21 (centres unmarked) [Compound I-204]
—		> 75	< 1	—			Cn1c(=O)n(C2CCC(=O)NC2=O)c2ccc(N3CCC(CN4CCN(c5ccc(-c6cc(-c7cc8c([nH]7)C7(CCC7)CNC8=O)ccn6)cc5)CC4)CC3)cc21 (centres unmarked) [Compound I-205]
—		50 to 75	1 to 10	—			Cn1c(=O)n(C2CCC(=O)NC2=O)c2ccc(N3CCC(CN4CCN(c5cc(-c6ccc7cc[nH]c7c6)cc(-c6cc(-c7cc8c([nH]7)CCNC8=O)ccn6)c5)CC4)CC3)cc21 (centres unmarked) [Compound I-206]
—	> 75	50 to 75	1 to 10				Cc1cc(-c2cc(-c3cc4c([nH]3)CCNC4=O)ccn2)cc(C)c1N1CCN(CC2CCN(c3ccc4c(c3)n(C)c(=O)n4C3CCC(=O)NC3=O)CC2)CC1 (centres unmarked) [Compound I-207]
	< 50	< 50	> 100		> 100		C[C@@H]1Cc2oc(-c3ccnc(-c4ccc(N5CCN(CC6CCN(c7ccc8c(c7)n(C)c(=O)n8C7CCC(=O)NC7=O)CC6)CC5)cc4)c3)cc2C(=O)N1 (some centres unmarked) [Compound I-208]
—	< 50	< 50	> 100				C[C@@H]1Cc2oc(-c3ccnc(-c4ccc(N5CCN(CC6CCN(c7ccc8c(c7)n(C)c(=O)n8C7CCC(=O)NC7=O)CC6)CC5)nc4)c3)cc2C(=O)N1 (some centres unmarked) [Compound I-209]
	> 75	50 to 75	10 to 100		10 to 100		O=C1CCN(c2cncc3c(N4CCC(CN5CCN(c6ccc(-c7cc(-c8cc9c([nH]8)CCNC9=O)ccn7)cc6)CC5)CC4)cccc23)C(=O)N1 [Compound I-210]
	> 75	50 to 75	10 to 100		10 to 100		O=C1CCN(c2cncc3c(N4CCC(CN5CCN(c6ccc(-c7cc(-c8cc9c([nH]8)C8(CC8)CNC9=O)ccn7)cc6)CC5)CC4)cccc23)C(=O)N1 [Compound I-211]
	> 75	> 75	10 to 100		10 to 100		O=C1CCN(c2cncc3c(N4CCN(CC5CCN(c6ccc(-c7cc(-c8cc9c([nH]8)C8(CC8)CNC9=O)ccn7)cc6)CC5)CC4)cccc23)C(=O)N1 [Compound I-212]
	> 75	> 75	< 1		< 1		Cn1c(=O)n(C2CCC(=O)NC2=O)c2ccc(N3CCC(CN4CCN(c5ccc(-c6cc(-c7cc8c([nH]7)C7(CCC7)CNC8=O)ccn6)cn5)CC4)CC3)cc21 (centres unmarked) [Compound I-213]
	> 75	50 to 75	1 to 10		< 1		C[C@@H]1CNc2c(sc3ccc4nc(-c5ccc(N6CCN(C[C@@H]7CCN(c8ccc9c(c8)n(C)c(=O)n9C8CCC(=O)NC8=O)C7)CC6)cc5)ccc4c23)C(=O)N1 (some centres unmarked) [Compound I-214]
	> 75	50 to 75			< 1	—	C[C@@H]1CNc2c(sc3ccc4nc(-c5ccc(N6CCN(CCOc7ccc8c(c7)n(C)c(=O)n8C7CCC(=O)NC7=O)CC6)cc5)ccc4c23)C(=O)N1 (some centres unmarked) [Compound I-215]
	> 75	> 75	< 1		1 to 10		C[C@@H]1CNc2c(sc3ccc4nc(-c5cc(Cl)cc(N6CCN(CC7CCN(c8ccc9c(c8)n(C)c(=O)n9C8CCC(=O)NC8=O)CC7)CC6)c5)ccc4c23)C(=O)N1 (some centres unmarked) [Compound I-216]
	< 50	< 50	> 100		> 100		Cc1cc(N2CCN(CC3CCN(c4ccc5c(c4)n(C)c(=O)n5C4CCC(=O)NC4=O)CC3)CC2)ccc1-c1cc(-c2cc3c([nH]2)C2(CC2)CNC3=O)ccn1 (centres unmarked) [Compound I-217]
	> 75	> 75	< 1		< 1		Cn1c(=O)n(C2CCC(=O)NC2=O)c2ccc(N3CCC(CN4CCN(c5ccc(-c6cc(-c7cc8c([nH]7)C7(CC7)CNC8=O)ccn6)c(F)c5)CC4)CC3)cc21 (centres unmarked) [Compound I-218]
	< 50	< 50	> 100		> 100		C[C@@H]1CNc2c(sc3ccc4nc(-c5cc(N6CCN(CC7CCN(c8ccc9c(c8)n(C)c(=O)n9C8CCC(=O)NC8=O)CC7)CC6)nc(C(C)(C)O)c5)ccc4c23)C(=O)N1 (some centres unmarked) [Compound I-219]
	< 50	< 50	> 100		> 100		Cc1cnc(-c2ccnc(C(=O)NCCCCCCc3ccc4c(c3)n(C)c(=O)n4C3CCC(=O)NC3=O)n2)cc1-n1c(C)cc(OCc2ncc(F)cc2F)c(Cl)c1=O (centres unmarked) [Compound I-220]
	> 75	> 75	< 1		< 1		C[C@@H]1CNc2c(sc3ccc4nc(-c5ccc(N6CCN(C[C@H]7C[C@@H](c8ccc9c(c8)n(C)c(=O)n9C8CCC(=O)NC8=O)C7)CC6)cc5)ccc4c23)C(=O)N1 (some centres unmarked) [Compound I-221]
	> 75	> 75	< 1		< 1		C[C@@H]1CNc2c(sc3ccc4nc(-c5ccc(N6CCN(C[C@H]7C[C@H](c8ccc9c(c8)n(C)c(=O)n9C8CCC(=O)NC8=O)C7)CC6)cc5)ccc4c23)C(=O)N1 (some centres unmarked) [Compound I-222]
	< 50	< 50	> 100		> 100		Cn1c(=O)n(C2CCC(=O)NC2=O)c2ccc(N3CCC(CN4CCN(c5cc(-c6ccccc6)cc(-c6cc(-c7cc8c([nH]7)CCNC8=O)ccn6)c5)CC4)CC3)cc21 (centres unmarked) [Compound I-224]
	< 50	< 50	> 100		> 100		Cn1c(=O)n(C2CCC(=O)NC2=O)c2ccc(N3CCC(CN4CCN(c5cc(C#N)cc(-c6cc(-c7cc8c([nH]7)CCNC8=O)ccn6)c5)CC4)CC3)cc21 (centres unmarked) [Compound I-225]
